Assay results as given in patent publication US9695193B2, “Inhibitors of Plasmodium falciparum equilibrative nucleoside transporter type I as anti-parasitic compounds” (The Trustees of Columbia University in the City of New York, priority 2013, dated 2017).
Where two headings read alike, the source gives them in different places.

Columns and labels:
Format in all cases: cell-based
PfENT1 = molecular target: T1, PfENT1 (Plasmodium falciparum, UniProt Q8IDM6); details: primary HTS, compounds at 10 μM, 125 μM 5-FUrd
T1 construct: expressed in transfected cells; host or cells: fui1Δ yeast (Saccharomyces cerevisiae), co-expressing GFP
T1 sequence (Q8IDM6 whole entry): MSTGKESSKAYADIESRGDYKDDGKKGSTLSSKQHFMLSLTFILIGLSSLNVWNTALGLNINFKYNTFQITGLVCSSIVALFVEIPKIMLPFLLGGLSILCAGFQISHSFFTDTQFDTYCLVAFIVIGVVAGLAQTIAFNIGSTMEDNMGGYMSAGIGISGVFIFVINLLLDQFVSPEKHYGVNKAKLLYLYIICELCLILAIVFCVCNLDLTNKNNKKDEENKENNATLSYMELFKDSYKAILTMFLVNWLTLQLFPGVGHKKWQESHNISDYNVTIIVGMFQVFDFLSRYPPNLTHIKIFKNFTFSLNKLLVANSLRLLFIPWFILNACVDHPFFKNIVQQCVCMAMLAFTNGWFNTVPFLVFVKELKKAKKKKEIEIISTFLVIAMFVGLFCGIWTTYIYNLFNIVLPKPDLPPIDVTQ
Method in brief: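 fui1Δ yeast expressing PfENT1 and GFP were grown with 125 μM 5-fluorouridine, so growth reflects blocked 5-FUrd uptake. Compounds were screened at 10 μM. Growth scored by OD620 turbidity and GFP fluorescence, and hits had to be positive on both.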

Dd2 parasite = assay: Plasmodium falciparum parasite viability assay (Dd2); details: Dd2, high purine media, Mean ± SD
PfENT1-HA-CO = molecular target: T2, PfENT1-HA-CO (Plasmodium falciparum, UniProt Q8IDM6); assay: Concentration-dependent rescue of PfENT1-HA-CO-expressing fui1Δ yeast from 5-FUrd induced death
T2 construct: HA; expressed in transfected cells; host or cells: fui1Δ yeast (Saccharomyces cerevisiae)
T2 sequence (Q8IDM6 whole entry): as above
Procedure: In the primary screen the compounds were tested at a concentration of 10 μM. Hits were identified by the growth of fui1Δ yeast expressing PfENT1 and Green Fluorescent Protein (GFP) in the presence of the cytotoxic nucleoside 5-fluorouridine (5-FUrd). 5-FUrd is transported by PfENT1. PfENT1 expressing fui1Δ yeast will only grow in the presence of 125 μM 5-FUrd if a PfENT1 inhibitor blocks the uptake of 5-FUrd into the yeast. Significant yeast growth in the HTS in 384 well plates was determined by two criteria: 1) turbidity as determined by the optical density at 620 nm (OD620) and 2) GFP fluorescence intensity. Positive responses were signal intensities greater than four standard deviations above the mean of the negative growth control wells. Hits had to be positive by both criteria. From the library screen, 171 chemical entities were identified as positive by both criteria (Table 2).
Of the 171 hits from the primary HTS, nine were chosen for more extensive validation using a series of secondary assays. These nine compounds included the top seven hits (HTS rank #1-7 as indicated in Tables 1 and 2), the first hit identified (compound HTS rank #19) and compound HTS rank #13, which was a unique chemical scaffold relative to the other 8 compounds. The secondary assays used to validate the nine selected hits include 1) repeat of the primary HTS using a series of compound concentrations to determine the concentration-response relationship for each compound, 2) testing in an alternative yeast-based assay in purine auxotrophic ade2Δ yeast expressing PfENT1 (described below, FIG. 1 and FIG. 4B), and 3) a Plasmodium falciparum cytotoxicity assay (described below, FIGS. 5A-B.). These assays allowed further confirmation the hits, determining the concentration-response relationships in the yeast-based assays and the concentration dependence of their ability to kill Plasmodium falciparum parasites during growth in in vitro culture. There was a roughly linear correlation between the compounds' IC50s measured in the two yeast-based assays. All nine compounds were tested in the P. falciparum cytotoxicity assay (FIGS. 5A-B).
(§1) The means values from single experiments are shown. In the key, CQ=chloroquine, and the Table 1 compounds are referenced as symbols indicating HTS rank #1-7, 13, and 19. In this assay, inhibitors of PfENT1 […] yeast growth (FIGS. 4B-C).

[1] = tested on: P. falciparum parasites (3D7 strain); assay: Plasmodium falciparum cytotoxicity assay (3D7 strain, SYBR-Green); details: 72-96 hours, Mean ± SD
Procedure: Plasmodium falciparum Cytotoxicity Assay
P. falciparum parasites (3D7 strain-chloroquine sensitive) are grown in in vitro culture in human erythrocytes. Each well is inoculated with a low density of parasites in standard parasite growth media with supplemented hypoxanthine (10 or 367 μM). Increasing concentrations of drugs are added and parasites are allowed to grow for 72-96 hours in 5% CO2/5% O2/90% N2 gas at 37° C. At the end of the experiment, parasites are lysed, SYBR-Green dye in lysis solution is added and the fluorescence intensity is measured for each well.

[2] = tested on: P. falciparum 3D7 parasites; assay: [3H]adenosine uptake into trophozoite-stage P. falciparum 3D7 parasites; details: Plasmodium falciparum, uptake over 15 minutes, Mean ± SD, N ≧ 3
Text: FIGS. 5A-E are graphs and images reflecting the inhibitory effects of selected PfENT1 inhibiting compounds with P. falciparum. FIGS. 5A-C are graphs illustrating the inhibitory effects of selected PfENT1 inhibiting compounds with P. falciparum.

PfENT1-CO = molecular target: T3, PfENT1-CO (Plasmodium falciparum, UniProt Q8IDM6); assay: [3H]adenosine uptake into PfENT1-CO expressing ade2Δ yeast; details: uptake over 15 minutes; Mean ± SD, N ≧ 3
T3 construct: expressed in transfected cells; host or cells: purine auxotrophic ade2Δ yeast (Saccharomyces cerevisiae)
T3 sequence (Q8IDM6 whole entry): as above
Text: FIGS. 4A-C are graphs showing the validation of selected compounds identified as Plasmodium falciparum Equilibrative Nucleoside Transporter Type I (PfENT1) inhibitors in the high-throughput screen (HTS). […] The means values from single experiments are shown. In the key, CQ=chloroquine, and the Table 1 compounds are referenced as symbols indicating HTS rank #1-7, 13, and 19.
as §1

[3] = 3D7, high purine media (hypoxanthine 367 μM), read-out: IC50 3D7 parasite viability-high purine media
[4] = 3D7, low purine media (hypoxanthine 10 μM), read-out: IC50 3D7 parasite viability-low purine media

Cc1ccccc1/C=C/c1nc2ccccc2c(=O)[nH]1 [compound 13, 2-[2-(2-methylphenyl)vinyl]-4(3H)-quinazolinone]
Avg Normalized % maximal activity (PfENT1): 24.69%
IC50 (Dd2 parasite): 2.6 ± 0.2 µM
IC50 (PfENT1-HA-CO): 4.7 ± 2.9 µM
IC50 [1, 3]: 6.7 ± 0.5 µM
IC50 [1, 4]: 6.9 ± 0.4 µM
IC50 [2]: 0.0216 ± 0.0142 µM

O=C(Nc1ccc(-c2nnc(-c3ccco3)o2)cc1)c1ccco1 [compound 4, N-{4-[5-(2-furyl)-1,3,4-oxadiazol-2-yl]phenyl}-2-furamide]
Avg Normalized % maximal activity (PfENT1): 74.03%
IC50 (Dd2 parasite): 15.3 ± 2.7 µM
IC50 (PfENT1-CO): 0.0137 ± 0.0075 µM
IC50 (PfENT1-HA-CO): 5.7 ± 0.8 µM
IC50 [1, 3]: 14.7 ± 1.9 µM
IC50 [1, 4]: 15 ± 1.5 µM
IC50 [2]: 0.0458 ± 0.0241 µM

COc1cc(COc2ccc3c(C)cc(=O)oc3c2)cc(OC)c1OC [HTS Rank #3, 4-methyl-7-[(3,4,5-trimethoxybenzyl)oxy]-2H-chromen-2-one]
Avg Normalized % maximal activity (PfENT1): 84.71%
IC50 (Dd2 parasite): 36.2 ± 6 µM
IC50 (PfENT1-CO): 0.0024 ± 0.0015 µM
IC50 (PfENT1-HA-CO): 2.3 ± 0.9 µM
IC50 [1, 3]: 41 ± 4.3 µM
IC50 [1, 4]: 19.2 ± 4.3 µM
IC50 [2]: 0.0064 ± 0.003 µM

Cn1cc(C(=O)C(=O)Nc2ccc(C(=O)N3CCCC3)cc2)c2ccccc21 [compound 5, 2-(1-methyl-1H-indol-3-yl)-2-oxo-N-[4-(pyrrolidin-1-ylcarbonyl)phenyl]acetamide]
Avg Normalized % maximal activity (PfENT1): 64.07%
IC50 (Dd2 parasite): 28.9 ± 2.6 µM
IC50 (PfENT1-CO): 0.0227 ± 0.0072 µM
IC50 (PfENT1-HA-CO): 6.5 ± 1.5 µM
IC50 [1, 3]: 33.1 ± 0.5 µM
IC50 [1, 4]: 35.5 ± 0.7 µM
IC50 [2]: 0.0386 ± 0.0201 µM

O=C(Nc1ccc2nc(NC(=O)c3ccco3)sc2c1)c1ccco1 [compound 1]
Avg Normalized % maximal activity (PfENT1): 97.22%
IC50 (Dd2 parasite): 25.8 ± 1.3 µM
IC50 (PfENT1-CO): 0.003 ± 0.0013 µM
IC50 (PfENT1-HA-CO): 0.8 µM
IC50 [1, 3]: 37.7 ± 2 µM
IC50 [1, 4]: 31.1 ± 4.7 µM
IC50 [2]: 0.0054 ± 0.0029 µM

COc1ccccc1C(=O)Nc1cccc(-c2nc3ncccc3o2)c1 [compound 7, 2-methoxy-N-(3-[1,3]oxazolo [4,5-b]pyridin-2-ylphenyl)benzamide]
Avg Normalized % maximal activity (PfENT1): 55.05%
IC50 (Dd2 parasite): 31 ± 0.6 µM
IC50 (PfENT1-CO): 0.0109 ± 0.0068 µM
IC50 (PfENT1-HA-CO): 6.4 ± 0.9 µM
IC50 [1, 3]: 44.8 ± 3.8 µM
IC50 [1, 4]: 43.6 ± 4.4 µM
IC50 [2]: 0.0248 ± 0.0174 µM

O=C(Nc1ccc(Cl)c(-c2nc3ncccc3o2)c1)c1cccs1 [compound 19, N-(4-chloro-3-[1,3]oxazolo [4,5-b]pyridin-2-ylphenyl)-2-thiophenecarboxamide]
Avg Normalized % maximal activity (PfENT1): 21.24%
IC50 (Dd2 parasite): 37.4 ± 1.6 µM
IC50 (PfENT1-CO): 0.0384 ± 0.0165 µM
IC50 (PfENT1-HA-CO): 5.4 ± 0.8 µM
IC50 [1, 3]: 42.9 ± 2.8 µM
IC50 [1, 4]: 43.2 ± 2.9 µM
IC50 [2]: 0.0179 ± 0.0127 µM

O=C(Nc1ccc(-c2nc3ncccc3o2)cc1)c1ccccc1Br [compound 2, 2-bromo-N-(4-[1,3]oxazolo [4,5-b]pyridin-2-ylphenyl)benzamide]
Avg Normalized % maximal activity (PfENT1): 91.94%
IC50 (Dd2 parasite): 52.4 ± 5.7 µM
IC50 (PfENT1-CO): 0.0101 ± 0.0084 µM
IC50 (PfENT1-HA-CO): 6 ± 1.7 µM
IC50 [1, 3]: 53.4 ± 11.1 µM
IC50 [1, 4]: 31.2 ± 7.7 µM
IC50 [2]: 0.028 ± 0.0123 µM

O=C(Nc1cccc(-c2nc3ncccc3o2)c1)c1cccc(F)c1 [compound 6, 3-fluoro-N-(3-[1,3]oxazolo [4,5-b]pyridin-2-ylphenyl)benzamide]
Avg Normalized % maximal activity (PfENT1): 59.06%
IC50 (Dd2 parasite): 38.8 ± 4.9 µM
IC50 (PfENT1-CO): 0.0096 ± 0.0074 µM
IC50 (PfENT1-HA-CO): 5.7 ± 1.3 µM
IC50 [1, 3]: 33.7 ± 5 µM
IC50 [1, 4]: 34.8 ± 2.4 µM
IC50 [2]: 0.0198 ± 0.0129 µM
